Patent US20020013342A1, “Treatment of central nervous system disorders with selective estrogen receptor modulators” (priority 1997, published 2002)
Where a name gives a salt, the structure may show the parent alone.

Experiments:
[1] = HPLC/UV analysis of liver and cerebral cortex homogenates for parent drug, primary metabolite and glucuronide conjugates; assay type: in vivo, Female Fischer 344 rats; details: for peaks corresponding to the glucuronide conjugates in the HPLC chromatogram of the cerebral cortex homogenate: eight hours after dosing
Protocol: A liver and cerebral cortex homogenate were analyzed by HPLC and UV detection at 315 nm to determine if the radioactivity in these tissues was actually due to the drug initially dosed, to the primary metabolite, 6-hydroxy-2-(4-hydroxyphenyl)-3-[4-(piperidinoethoxy)phenoxy]-benzo[b]thiophene, or there glucuronide conjugates. The cerebral cortex sample was obtained eight hours after dosing and the liver samples were collected at four and eight hours after dosing. The proteins in the homogenate were precipitated with acetonitrile and the supernate was evaporated to dryness. The residue was reconstituted in mobile phase and injected onto a SynChropak SCD-100 column with the initial mobile phase composed of […]. (v/v/v). The retention times of the peaks from the homogenate were compared with those obtained from authentic samples of 6-hydroxy-2-(4-methoxyphenyl)-3-[4-(piperidinoethoxy)phenoxy]benzo[b]thiophene and its metabolite, 6-hydroxy-2-(4-hydroxyphenyl)-3-[4-(piperidinoethoxy)phenoxy]benzo [b]-thiophene.

[2] = tested on: gene expression in the hippocampus; assay: Differential mRNA display in hippocampi of ovariectomized rats after five weeks of daily treatment; assay type: in vivo, female Sprague-Dawley rats; details: 1 mg/kg daily subcutaneous, comparator estradiol benzoate 0.03 mg/kg
Protocol: A commonly employed model of estrogen depletion is the ovariectomized adult rat. An experiment was conducted in ovariectomized rats using differential mRNA display to determine the similarities and/or differences between a representative compound of the present invention, 6-hydroxy-2-(4-methoxyphenyl)-3-[4-(2-piperidinoethoxy)phenoxy]-benzo[b]thiophene, and estrogen at affecting gene expression in various brain regions. Specifically, female Sprague-Dawley rats, 6 weeks of age, were ovariectomized by the vendor. Following one week of acclimation to the laboratory facility, daily subcutaneous injections of estradiol benzoate (0.03 mg/kg) or 6-hydroxy-2-(4-methoxyphenyl)-3-[4-(2-piperidinoethoxy)phenoxy]-benzo[b]thiophene (1 mg/kg), or vehicle (control) were initiated.
After five weeks of daily treatment, animals were sacrificed and their brains removed and hippocampi collected by microdissection. The hippocampi were fast frozen in liquid nitrogen and stored at −70_C. Total RNA was prepared from pooled tissue from the appropriate treatment and control groups and reverse transcribed using a 3′ oligonucleotide primer which selected for specific mRNA (poly-A+) populations. Polymerase chain reactions (PCR) were carried out in a cocktail consisting of: random 5′ oligonucleotides (10 base-pairs in length; total of 150), reaction buffer, Taq polymerase, and a ^32PdTCP. […]

[3] = Distribution of radioactivity among tissues after a single oral dose of 14C-labeled compound in the female F344 rat; assay type: in vivo, Female Fischer 344 rats
Protocol: Female Fischer 344 rats (approximately twelve weeks old) were given a single oral gavage dose of 5 mg/kg (30 mCi/kg) of ^14C-labeled 6-hydroxy-2-(4-methoxyphenyl)-3-[4-(piperidinoethoxy)phenoxy]benzo[b]thiophene hydrochloride in 50% PEG 300/50% water. Blood and tissues were collected from three rats at each time point: just prior to dosing and at 2, 4, 8, and 24 hours after dosing. At each time point, the animals were sacrificed, blood samples were collected and the heparinized blood was centrifuged and the plasma obtained. Following collection of the bloood sample in each case, the animals were perfused with 0.9% saline solution and the brain, pituitary, femurs, ovaries, uterus and liver were surgically removed and placed in separate containers. […]
The radioactivity of each sample was determined by liquid scintillation spectrometry. Plasma was counted directly, while the other tissues were either homogenized, digested, or oxidized prior to liquid scintillation counting. […]
Samples were oxidized on a Packard Model307 Oxidizer and the resulting ^14CO2 trapped for liquid scintillation counting. The radioactivity in each tissue sample was converted to nanogram equivalents per gram of tissue (specific activity=16.3 dpm/ng). The 0-24 hour area under the curve (AUC0-24 hr) was calculated for each sample.

COc1ccc(-c2sc3cc(OC)ccc3c2Oc2ccc(OCCN3CCCCC3)cc2)cc1 (as salt: hydrochloride) [Example 2, [6-methoxy-3-[4-[2-(1-piperidinyl)ethoxy]-phenoxy]-2-(4-methoxyphenyl)]benzo[b]thiophene hydrochloride salt]
melting point: 216 to 220 °C

COc1ccc(-c2sc3cc(OC)ccc3c2Oc2ccc(OCCN3CCCCCC3)cc2)cc1 (as salt: hydrochloride) [Example 4, [6-Methoxy-3-[4-[2-(1-hexamethyleneimino)ethoxy]phenoxy]-2-(4-methoxyphenyl)]benzo[b]thiophene Hydrochloride]
melting point: 189 to 192 °C

CCN(CC)CCOc1ccc(Oc2c(-c3ccc(OC)cc3)sc3cc(OC)ccc23)cc1 (as salt: hydrochloride) [Example 5, [6-Methoxy-3-[4-[2-(1-N,N-diethylamino)ethoxy]phenoxy]-2-(4-methoxyphenyl)]benzo[b]thiophene Hydrochloride]
melting point: 196 to 198 °C

COc1ccc(-c2sc3cc(OC)ccc3c2Oc2ccc(OCCN3CCOCC3)cc2)cc1 (as salt: hydrochloride) [Example 6, [6-Methoxy-3-[4-[2-(morpholino)ethoxy]-phenoxy]-2-(4-methoxyphenyl)]benzo[b]thiophene Hydrochloride]
melting point: 208 to 211 °C

Oc1ccc(-c2sc3cc(O)ccc3c2Oc2ccc(OCCN3CCOCC3)cc2)cc1 (as salt: hydrochloride) [Example 13, [6-Hydroxy-3-[4-[2-(morpholino)ethoxy]-phenoxy]-2-(4-hydroxyphenyl)]benzo[b]thiophene Hydrochloride]
melting point: 157 to 162 °C

COc1ccc2c(Oc3ccc(OCCN4CCCCC4)cc3)c(-c3ccc(O)cc3)sc2c1 (as salt: hydrochloride) [Example 17, [6-methoxy-3-[4-[2-(1-piperidinyl)ethoxy]-phenoxy]-2-(4-hydroxyphenyl)]benzo[b]thiophene Hydrochloride]
melting point: 215 to 217 °C

COc1ccc(-c2sc3cc(OC)ccc3c2Oc2ccc(OCCN3CCCCC3)cc2)cc1 (as salt: oxalate) [Example 1, [6-methoxy-3-[4-[2-(1-piperidinyl)ethoxy]-phenoxy]-2-(4-methoxyphenyl)]benzo[b]thiophene Oxalate Salt]
melting point: 197 to 200 °C (dec.)

COc1ccc(-c2sc3cc(OC)ccc3c2Oc2ccc(OCCN3CCCC3)cc2)cc1 [Example 3, [6-Methoxy-3-[4-[2-(1-pyrolodinyl)ethoxy]-phenoxy]-2-(4-methoxyphenyl)]benzo[b]thiophene]
melting point: 95 to 98 °C

Oc1ccc(-c2sc3cc(O)ccc3c2Oc2ccc(OCCN3CCCCC3)cc2)cc1 [Example 7, [6-Hydroxy-3-[4-[2-(1-piperidinyl)ethoxy]-phenoxy]-2-(4-hydroxyphenyl)]benzo[b]thiophene]
peaks corresponding to the glucuronide conjugates in the HPLC chromatogram of the cerebral cortex homogenate [1]: not observed

Oc1ccc(-c2sc3cc(O)ccc3c2Oc2ccc(OCCN3CCCC3)cc2)cc1 [Example 10, [6-Hydroxy-3-[4-[2-(1-pyrolidinyl)ethoxy]-phenoxy]-2-(4-hydroxyphenyl)]benzo[b]thiophene]
melting point: 99 to 113 °C

Oc1ccc(-c2sc3cc(O)ccc3c2Oc2ccc(OCCN3CCCCCC3)cc2)cc1 [Example 11, [6-Hydroxy-3-[4-[2-(1-hexamethyleneimino)ethoxy]phenoxy]-2-(4-hydroxyphenyl)]benzo[b]thiophene]
melting point: 125 to 130 °C

CCN(CC)CCOc1ccc(Oc2c(-c3ccc(O)cc3)sc3cc(O)ccc23)cc1 [Example 12, [6-Hydroxy-3-[4-[2-(1-N,N-diethylamino)ethoxy]phenoxy]-2-(4-hydroxyphenyl)]benzo[b]thiophene]
melting point: 137 to 141 °C

COc1ccc(-c2sc3cc(O)ccc3c2Oc2ccc(OCCN3CCCCC3)cc2)cc1 [Example 14, [6-Hydroxy-3-[4-[2-(1-piperidinyl)ethoxy]-phenoxy]-2-(4-methoxyphenyl)]benzo[b]thiophene]
mRNA display pattern in rat hippocampus compared with that observed for estrogen [2]: parallel pattern of gene activation or inactivation

COc1ccc(-c2sc3cc(O)ccc3c2Oc2ccc(OCCN3CCCCC3)cc2)cc1 [Example 15, [6-Hydroxy-3-[4-[2-(1-piperidinyl)ethoxy]-phenoxy]-2-(4-methoxyphenyl)]benzo[b]thiophene Hydrochloride Salt]
time after dosing at which peak levels of radioactive material were reached ([3]; all tissues with the exception of the liver): 8 h | time after dosing at which peak levels of radioactive material were reached ([3]; liver): 4 h | peaks corresponding to the glucuronide conjugates in the HPLC chromatogram of the cerebral cortex homogenate [1]: not observed | peaks in the HPLC chromatogram of the liver homogenates ([1]; liver samples collected at four and eight hours after dosing): peaks whose retention times corresponded to the parent compound and its glucuronide conjugate

COc1ccc2c(Oc3ccc(OCCN4CCCCC4)cc3)c(-c3ccc(O)cc3)sc2c1 [Example 16, [6-methoxy-3-[4-[2-(1-piperidinyl)ethoxy]phenoxy]-2-(4-hydroxyphenyl)]benzo[b]thiophene]
melting point: 147 to 150 °C
